The values below come from paper PMC5218480 (PLoS ONE, 2017).

The structures appear in SMILES notation.

The test system of the experiment is MV-4-11 cells. The experiment in a line: Gene expression microarray analysis (Affymetrix PrimeView) and GSEA. In kind it is cell-based, human. The conditions noted are these: MV-4-11 cells, 48 hours. Further details: RFU PODN (11730768_x_at) / Fold change /veh PODN (11730768_x_at) / RFU LINC00158 (11744669_a_at) / Fold change /veh LINC00158 (11744669_a_at) / RFU DUSP10 (11751237_a_at) / Fold change /veh DUSP10 (11751237_a_at) / RFU ID3 (11757404_x_at) / Fold change /veh ID3 (11757404_x_at) / RFU PLEKHG5 (11737974_s_at) / Fold change /veh PLEKHG5 (11737974_s_at) / RFU LRRC4B (11730491_at) / Fold change /veh LRRC4B (11730491_at) / RFU GIMAP4 (11747438_a_at) / Fold change /veh GIMAP4 (11747438_a_at) / RFU KRT8 (11758183_x_at) / Fold change /veh KRT8 (11758183_x_at) / RFU CNN1 (11734310_a_at) / Fold change /veh CNN1 (11734310_a_at) / RFU VPS37D (11726825_at) / Fold change /veh VPS37D (11726825_at) / RFU C10orf10 (11716522_x_at) / Fold change /veh C10orf10 (11716522_x_at) / RFU KIR2DL2 /// KIR2DL4 /// KIR2DL5A /// KIR2DL5B /// KIR2DS1 /// KIR2DS2 /// KIR2DS3 /// KIR2DS4 /// KIR3DL3 /// KIR3DL3 /// KIR3DS1 (11738374_at) / Fold change /veh KIR2DL2 /// KIR2DL4 /// KIR2DL5A /// KIR2DL5B /// KIR2DS1 /// KIR2DS2 /// KIR2DS3 /// KIR2DS4 /// KIR3DL3 /// KIR3DL3 /// KIR3DS1 (11738374_at) / RFU C1QL1 (11718748_at) / Fold change /veh C1QL1 (11718748_at) / RFU TMPRSS4 (11747572_a_at) / Fold change /veh TMPRSS4 (11747572_a_at) / RFU HAMP (11756126_x_at) / Fold change /veh HAMP (11756126_x_at) / RFU RNFT2 (11725882_a_at) / Fold change /veh RNFT2 (11725882_a_at) / RFU NR4A2 (11747474_a_at) / Fold change /veh NR4A2 (11747474_a_at) / RFU ABCC12 (11746883_a_at) / Fold change /veh ABCC12 (11746883_a_at) / RFU TMEM136 (11760407_x_at) / Fold change /veh TMEM136 (11760407_x_at) / RFU CLDN22 /// WWC2 (11732394_at) / Fold change /veh CLDN22 /// WWC2 (11732394_at) / RFU HLA-DPB1 (11760878_x_at) / Fold change /veh HLA-DPB1 (11760878_x_at) / RFU SPINT1 (11716480_a_at) / Fold change /veh SPINT1 (11716480_a_at) / RFU GAP43 (11754022_s_at) / Fold change /veh GAP43 (11754022_s_at) / RFU A4GNT (11735810_at) / Fold change /veh A4GNT (11735810_at) / RFU PRB3 (11715151_x_at) / Fold change /veh PRB3 (11715151_x_at) / RFU TUBB4B (11761932_at) / Fold change /veh TUBB4B (11761932_at) / RFU CAPN14 (11732068_a_at) / Fold change /veh CAPN14 (11732068_a_at) / RFU TMCC2 (11721928_a_at) / Fold change /veh TMCC2 (11721928_a_at) / RFU IRGQ (11745062_a_at) / Fold change /veh IRGQ (11745062_a_at) / RFU FAM174B (11720279_a_at) / Fold change /veh FAM174B (11720279_a_at) / RFU TMPRSS4 (11748680_a_at) / Fold change /veh TMPRSS4 (11748680_a_at) / RFU FAM212B (11763350_a_at) / Fold change /veh FAM212B (11763350_a_at) / RFU PLEKHG5 (11743358_a_at) / Fold change /veh PLEKHG5 (11743358_a_at) / RFU ZSCAN30 (11745921_a_at) / Fold change /veh ZSCAN30 (11745921_a_at) / RFU CMKLR1 (11741424_a_at) / Fold change /veh CMKLR1 (11741424_a_at) / RFU LOC101060620 /// MAPK8IP1 (11723275_at) / Fold change /veh LOC101060620 /// MAPK8IP1 (11723275_at) / RFU SPTSSB (11747773_x_at) / Fold change /veh SPTSSB (11747773_x_at) / RFU PRSS12 (11739890_at) / Fold change /veh PRSS12 (11739890_at) / RFU BIN1 (11741810_x_at) / Fold change /veh BIN1 (11741810_x_at) / RFU WNT11 (11732464_a_at) / Fold change /veh WNT11 (11732464_a_at) / RFU C10orf10 (11716521_a_at) / Fold change /veh C10orf10 (11716521_a_at) / RFU C5orf56 (11738089_at) / Fold change /veh C5orf56 (11738089_at) / RFU CYB561 (11721691_x_at) / Fold change /veh CYB561 (11721691_x_at) / RFU ANKRD19P (11752326_a_at) / Fold change /veh ANKRD19P (11752326_a_at) / RFU OR2T12 /// OR2T33 /// OR2T8 (11738714_s_at) / Fold change /veh OR2T12 /// OR2T33 /// OR2T8 (11738714_s_at) / RFU VCAN (11748164_a_at) / Fold change /veh VCAN (11748164_a_at) / RFU JSRP1 (11732532_at) / Fold change /veh JSRP1 (11732532_at) / RFU KRTAP10-11 (11738290_x_at) / Fold change /veh KRTAP10-11 (11738290_x_at) / RFU MYO3A (11730013_a_at) / Fold change /veh MYO3A (11730013_a_at) / RFU EBF3 (11725865_a_at) / Fold change /veh EBF3 (11725865_a_at) / RFU CAMK2N1 (11719241_x_at) / Fold change /veh CAMK2N1 (11719241_x_at) / RFU C5orf56 (11738088_a_at) / Fold change /veh C5orf56 (11738088_a_at) / RFU OLFML3 (11715873_a_at) / Fold change /veh OLFML3 (11715873_a_at) / RFU LOC100653217 /// NTM (11731650_a_at) / Fold change /veh LOC100653217 /// NTM (11731650_a_at) / RFU MAPK11 (11762145_a_at) / Fold change /veh MAPK11 (11762145_a_at) / RFU FIZ1 (11724087_x_at) / Fold change /veh FIZ1 (11724087_x_at) / RFU OASL (11726364_x_at) / Fold change /veh OASL (11726364_x_at) / RFU SOX15 (11748057_x_at) / Fold change /veh SOX15 (11748057_x_at) / RFU CD79A (11719716_a_at) / Fold change /veh CD79A (11719716_a_at) / RFU HIST1H1D (11736915_at) / Fold change /veh HIST1H1D (11736915_at) / RFU CASKIN2 (11723855_a_at) / Fold change /veh CASKIN2 (11723855_a_at) / RFU LOC730098 (11760151_x_at) / Fold change /veh LOC730098 (11760151_x_at) / RFU OR4N2 (11742367_at) / Fold change /veh OR4N2 (11742367_at) / RFU PRRT2 (11749266_a_at) / Fold change /veh PRRT2 (11749266_a_at) / RFU SNX32 (11753110_a_at) / Fold change /veh SNX32 (11753110_a_at) / RFU CDHR5 (11726645_a_at) / Fold change /veh CDHR5 (11726645_a_at) / RFU RCAN1 (11760418_a_at) / Fold change /veh RCAN1 (11760418_a_at) / RFU FAM167A (11723789_a_at) / Fold change /veh FAM167A (11723789_a_at) / RFU FAM26E (11764081_at) / Fold change /veh FAM26E (11764081_at) / RFU ISYNA1 (11749810_s_at) / Fold change /veh ISYNA1 (11749810_s_at) / RFU ACY1 (11761880_at) / Fold change /veh ACY1 (11761880_at) / RFU 11764098_at / Fold change /veh 11764098_at / RFU SAMD14 (11745864_x_at) / Fold change /veh SAMD14 (11745864_x_at) / RFU NPB (11741838_a_at) / Fold change /veh NPB (11741838_a_at) / RFU TMPRSS6 (11731388_a_at) / Fold change /veh TMPRSS6 (11731388_a_at) / RFU KRTAP10-2 (11738614_at) / Fold change /veh KRTAP10-2 (11738614_at) / RFU ARHGAP8 /// PRR5-ARHGAP8 (11727945_x_at) / Fold change /veh ARHGAP8 /// PRR5-ARHGAP8 (11727945_x_at) / RFU KRTAP5-7 /// NADSYN1 (11734609_at) / Fold change /veh KRTAP5-7 /// NADSYN1 (11734609_at) / RFU RASL12 (11751679_a_at) / Fold change /veh RASL12 (11751679_a_at) / RFU CDKN2B (11736163_a_at) / Fold change /veh CDKN2B (11736163_a_at) / RFU PRF1 (11729649_at) / Fold change /veh PRF1 (11729649_at) / RFU, ZNF638 /// ZNF638-IT1 / Fold change vs veh, ZNF638 /// ZNF638-IT1 / RFU, PANK3 / Fold change vs veh, PANK3 / RFU, SH3YL1 / Fold change vs veh, SH3YL1 / RFU, ZEB2 / Fold change vs veh, ZEB2 / RFU, NRIP1 / Fold change vs veh, NRIP1 / RFU, PTTG1IP / Fold change vs veh, PTTG1IP / RFU, CAPN2 / Fold change vs veh, CAPN2 / RFU, MED14 / Fold change vs veh, MED14 / RFU, SNORA58 / Fold change vs veh, SNORA58 / RFU, C1orf63 / Fold change vs veh, C1orf63 / RFU, LRRFIP1 / Fold change vs veh, LRRFIP1 / RFU, NDUFAF7 / Fold change vs veh, NDUFAF7 / RFU, SLC12A2 / Fold change vs veh, SLC12A2 / RFU, IBTK / Fold change vs veh, IBTK / RFU, ESF1 / Fold change vs veh, ESF1 / Fold change vs veh, TMEM50B / RFU, TAOK1 / Fold change vs veh, TAOK1 / RFU, ACBD3 / Fold change vs veh, ACBD3 / RFU, TMA16 / Fold change vs veh, TMA16 / RFU, RWDD3 / Fold change vs veh, RWDD3 / RFU, BCAT1 / Fold change vs veh, BCAT1 / RFU, EDEM3 / Fold change vs veh, EDEM3 / RFU, TMEM33 / Fold change vs veh, TMEM33 / RFU, WDR75 / Fold change vs veh, WDR75 / RFU, AHCTF1 / Fold change vs veh, AHCTF1 / RFU, TFRC / Fold change vs veh, TFRC / RFU, ZDHHC17 / Fold change vs veh, ZDHHC17 / RFU, NOM1 / Fold change vs veh, NOM1 / RFU, ARL8B / Fold change vs veh, ARL8B / RFU, ZBTB11 / Fold change vs veh, ZBTB11 / RFU, TAMM41 / Fold change vs veh, TAMM41 / RFU, KIAA1704 /// LOC100996395 / Fold change vs veh, KIAA1704 /// LOC100996395 / RFU, ING1 / Fold change vs veh, ING1 / RFU, TRMT61B / Fold change vs veh, TRMT61B / RFU, FUBP3 / Fold change vs veh, FUBP3 / RFU, TP53 / Fold change vs veh, TP53 / RFU, TNKS2 / Fold change vs veh, TNKS2 / RFU, ZFP14 / Fold change vs veh, ZFP14 / RFU, ACTR2 / Fold change vs veh, ACTR2 / RFU, PPP3R1 / Fold change vs veh, PPP3R1 / RFU, PIK3R1 / Fold change vs veh, PIK3R1 / RFU, HNRNPA1 / Fold change vs veh, HNRNPA1 / RFU, RNF170 / Fold change vs veh, RNF170 / RFU, ZNF28 / Fold change vs veh, ZNF28 / RFU, RNGTT / Fold change vs veh, RNGTT / RFU, OGT / Fold change vs veh, OGT / RFU, BRD1 / Fold change vs veh, BRD1 / RFU, MARS / Fold change vs veh, MARS / RFU, ZNF655 / Fold change vs veh, ZNF655 / RFU, FAHD1 / Fold change vs veh, FAHD1 / RFU, BDP1 / Fold change vs veh, BDP1 / RFU, LRRCC1 / Fold change vs veh, LRRCC1 / RFU, ARID1A / Fold change vs veh, ARID1A / RFU, ZNF146 / Fold change vs veh, ZNF146 / RFU, ZNF330 / Fold change vs veh, ZNF330 / RFU, GPN3 / Fold change vs veh, GPN3 / RFU, C9orf123 / Fold change vs veh, C9orf123 / RFU, N4BP2L2 / Fold change vs veh, N4BP2L2 / RFU, ARFIP1 / Fold change vs veh, ARFIP1 / RFU, FAM179B / Fold change vs veh, FAM179B / RFU, BCL10 / Fold change vs veh, BCL10 / RFU, UHRF1BP1L / Fold change vs veh, UHRF1BP1L / RFU, BET1 / Fold change vs veh, BET1 / RFU, CNOT2 / Fold change vs veh, CNOT2 / RFU, ZNF268 / Fold change vs veh, ZNF268 / Fold change vs veh, ZNF507 / RFU, DGCR2 / Fold change vs veh, DGCR2 / RFU, WDSUB1 / Fold change vs veh, WDSUB1 / Fold change vs veh, HSP90B1 /// MIR3652 / RFU, ADSS / Fold change vs veh, ADSS / RFU, GK / Fold change vs veh, GK / RFU, ZNF148 / Fold change vs veh, ZNF148 / RFU, TAF9 / Fold change vs veh, TAF9 / RFU, SLC1A5 / Fold change vs veh, SLC1A5 / RFU, SLMO2 / Fold change vs veh, SLMO2 / RFU, ABCC4 / Fold change vs veh, ABCC4 / RFU, LOC101060439 /// RAP1B / Fold change vs veh, LOC101060439 /// RAP1B / RFU, RFX7 / Fold change vs veh, RFX7 / RFU, GTPBP10 / Fold change vs veh, GTPBP10 / RFU, CNEP1R1 / Fold change vs veh, CNEP1R1 / RFU, BIVM-ERCC5 /// ERCC5 / Fold change vs veh, BIVM-ERCC5 /// ERCC5 / RFU, ILF3 / Fold change vs veh, ILF3 / RFU 11762660_at / Fold change /veh 11762660_at / RFU VCAN (11757783_s_at) / Fold change /veh VCAN (11757783_s_at) / RFU DDX43 (11728927_at) / Fold change /veh DDX43 (11728927_at) / RFU KRT8 (11758188_x_at) / Fold change /veh KRT8 (11758188_x_at) / RFU NKD1 (11759106_at) / Fold change /veh NKD1 (11759106_at) / RFU SRD5A1 (11742802_a_at) / Fold change /veh SRD5A1 (11742802_a_at) / RFU TPSAB1 /// TPSB2 (11721975_s_at) / Fold change /veh TPSAB1 /// TPSB2 (11721975_s_at) / RFU GSTM3 (11746129_a_at) / Fold change /veh GSTM3 (11746129_a_at) / RFU IL23R (11737362_x_at) / Fold change /veh IL23R (11737362_x_at) / RFU TMEM51 (11727254_a_at) / Fold change /veh TMEM51 (11727254_a_at) / RFU PIWIL2 (11732686_x_at) / Fold change /veh PIWIL2 (11732686_x_at) / RFU ORM1 (11744905_x_at) / Fold change /veh ORM1 (11744905_x_at) / RFU CCDC152 (11743942_at) / Fold change /veh CCDC152 (11743942_at) / RFU ECM1 (11717891_a_at) / Fold change /veh ECM1 (11717891_a_at) / RFU IL23R (11748794_a_at) / Fold change /veh IL23R (11748794_a_at) / RFU TNFAIP8L3 (11732012_x_at) / Fold change /veh TNFAIP8L3 (11732012_x_at) / RFU MBOAT4 (11741988_at) / Fold change /veh MBOAT4 (11741988_at) / RFU 11764193_at / Fold change /veh 11764193_at / RFU TMEM53 (11763286_at) / Fold change /veh TMEM53 (11763286_at) / RFU MAGEB2 (11727129_at) / Fold change /veh MAGEB2 (11727129_at) / RFU TMEM200A (11744735_a_at) / Fold change /veh TMEM200A (11744735_a_at) / RFU CCDC152 (11751479_a_at) / Fold change /veh CCDC152 (11751479_a_at) / RFU FAM211A (11726209_a_at) / Fold change /veh FAM211A (11726209_a_at) / RFU RGS16 (11746705_a_at) / Fold change /veh RGS16 (11746705_a_at) / RFU VCAN (11755009_s_at) / Fold change /veh VCAN (11755009_s_at) / RFU RHOB (11743442_s_at) / Fold change /veh RHOB (11743442_s_at) / RFU RGS16 (11720943_a_at) / Fold change /veh RGS16 (11720943_a_at) / RFU RGS16 (11720944_at) / Fold change /veh RGS16 (11720944_at) / RFU, VPS4B / Fold change vs veh, VPS4B / RFU, CREB1 / Fold change vs veh, CREB1 / RFU, DNAJC13 / Fold change vs veh, DNAJC13 / RFU, GNAQ / Fold change vs veh, GNAQ / RFU, CDK5R1 / Fold change vs veh, CDK5R1 / RFU, ZRANB3 / Fold change vs veh, ZRANB3 / RFU, CUL4A / Fold change vs veh, CUL4A / RFU, CCNY / Fold change vs veh, CCNY / RFU, UFL1 / Fold change vs veh, UFL1 / RFU, COG3 / Fold change vs veh, COG3 / RFU, DIAPH2 / Fold change vs veh, DIAPH2 / RFU, SKA2 / Fold change vs veh, SKA2 / RFU, AFF3 / Fold change vs veh, AFF3 / RFU, LMF1 / Fold change vs veh, LMF1 / RFU, IPO11 / Fold change vs veh, IPO11 / RFU, DFFB / Fold change vs veh, DFFB / RFU, FOXP1 / Fold change vs veh, FOXP1 / RFU, CARD8 / Fold change vs veh, CARD8 / RFU, STRN3 / Fold change vs veh, STRN3 / RFU, ADK / Fold change vs veh, ADK / RFU, RASSF2 / Fold change vs veh, RASSF2 / RFU, WIPF1 / Fold change vs veh, WIPF1 / RFU, LARP1B / Fold change vs veh, LARP1B / RFU, RASA1 / Fold change vs veh, RASA1 / RFU, RB1 / Fold change vs veh, RB1 / RFU, PPFIA1 / Fold change vs veh, PPFIA1 / RFU, MAT2A / Fold change vs veh, MAT2A / RFU, CCT5 / Fold change vs veh, CCT5 / RFU, WDR92 / Fold change vs veh, WDR92 / RFU, CUX1 / Fold change vs veh, CUX1 / RFU, TTC7A / Fold change vs veh, TTC7A / RFU, TMEM135 / Fold change vs veh, TMEM135 / RFU, DEPTOR / Fold change vs veh, DEPTOR / RFU, CPM / Fold change vs veh, CPM / RFU, DNAJB6 / Fold change vs veh, DNAJB6 / RFU, CACNA2D3 / Fold change vs veh, CACNA2D3 / RFU, DTX4 / Fold change vs veh, DTX4 / RFU, TFCP2 / Fold change vs veh, TFCP2 / RFU, GMCL1 /// GMCL1P1 / Fold change vs veh, GMCL1 /// GMCL1P1 / RFU, AEBP2 / Fold change vs veh, AEBP2 / RFU, SNHG1 /// SNORD22 /// SNORD25 /// SNORD26 /// SNORD27 /// SNORD28 /// SNORD29 /// SNORD31 / Fold change vs veh, SNHG1 /// SNORD22 /// SNORD25 /// SNORD26 /// SNORD27 /// SNORD28 /// SNORD29 /// SNORD31 / Fold change (Aza/veh), C12orf56 (ProbeSet 11735607_a_at) / Fold change (ACY-1035/veh), C12orf56 (ProbeSet 11735607_a_at) / Fold change (Aza/veh), FGFR1OP (ProbeSet 11751329_s_at) / Fold change (ACY-1035/veh), FGFR1OP (ProbeSet 11751329_s_at) / Fold change (Aza/veh), VPS36 (ProbeSet 11739960_a_at) / Fold change (ACY-1035/veh), VPS36 (ProbeSet 11739960_a_at) / RFU SYPL1 (11715823_x_at) / Fold change /veh SYPL1 (11715823_x_at) / RFU IGFBP7 (11715501_s_at) / Fold change /veh IGFBP7 (11715501_s_at) / RFU REEP3 (11722064_at) / Fold change /veh REEP3 (11722064_at) / RFU IGLL1 (11728026_x_at) / Fold change /veh IGLL1 (11728026_x_at): dose or concentration left out as unconfirmed.

On to `Nc1ccc(-c2cccs2)cc1NC(=O)c1ccc2c(c1)cc(C1CC1)n2CCN1CCOCC1` [ACY-1035], for which the “Fold change /veh REEP3 (11722064_at)” value turned out to be 0.53.
